Where two headings read alike, the source gives them in different places.
Experiments:
[1] = molecular target: T1, BRD3(1) (h) bromodomain (Homo sapiens, UniProt Q15059); assay: Epigenetic binding assay, Bromodomain; conditions: read-out: % Inhibition of Control Specific Binding
T1 construct: Bromodomain

[2] = tested on: H3K79 me2; assay: Cell-based detection methyl modifications; conditions: read-out: % Inhibition of Control Values
[3] = molecular target: JARID1A (h) (Homo sapiens, UniProt P29375); assay: Epigenetic enzyme assay, Demethylases (KDMs); format: biochemical; conditions: for inhibition at 10 µM: read-out: % Inhibition of Control Values
JARID1A (h), sequence (P29375 whole entry): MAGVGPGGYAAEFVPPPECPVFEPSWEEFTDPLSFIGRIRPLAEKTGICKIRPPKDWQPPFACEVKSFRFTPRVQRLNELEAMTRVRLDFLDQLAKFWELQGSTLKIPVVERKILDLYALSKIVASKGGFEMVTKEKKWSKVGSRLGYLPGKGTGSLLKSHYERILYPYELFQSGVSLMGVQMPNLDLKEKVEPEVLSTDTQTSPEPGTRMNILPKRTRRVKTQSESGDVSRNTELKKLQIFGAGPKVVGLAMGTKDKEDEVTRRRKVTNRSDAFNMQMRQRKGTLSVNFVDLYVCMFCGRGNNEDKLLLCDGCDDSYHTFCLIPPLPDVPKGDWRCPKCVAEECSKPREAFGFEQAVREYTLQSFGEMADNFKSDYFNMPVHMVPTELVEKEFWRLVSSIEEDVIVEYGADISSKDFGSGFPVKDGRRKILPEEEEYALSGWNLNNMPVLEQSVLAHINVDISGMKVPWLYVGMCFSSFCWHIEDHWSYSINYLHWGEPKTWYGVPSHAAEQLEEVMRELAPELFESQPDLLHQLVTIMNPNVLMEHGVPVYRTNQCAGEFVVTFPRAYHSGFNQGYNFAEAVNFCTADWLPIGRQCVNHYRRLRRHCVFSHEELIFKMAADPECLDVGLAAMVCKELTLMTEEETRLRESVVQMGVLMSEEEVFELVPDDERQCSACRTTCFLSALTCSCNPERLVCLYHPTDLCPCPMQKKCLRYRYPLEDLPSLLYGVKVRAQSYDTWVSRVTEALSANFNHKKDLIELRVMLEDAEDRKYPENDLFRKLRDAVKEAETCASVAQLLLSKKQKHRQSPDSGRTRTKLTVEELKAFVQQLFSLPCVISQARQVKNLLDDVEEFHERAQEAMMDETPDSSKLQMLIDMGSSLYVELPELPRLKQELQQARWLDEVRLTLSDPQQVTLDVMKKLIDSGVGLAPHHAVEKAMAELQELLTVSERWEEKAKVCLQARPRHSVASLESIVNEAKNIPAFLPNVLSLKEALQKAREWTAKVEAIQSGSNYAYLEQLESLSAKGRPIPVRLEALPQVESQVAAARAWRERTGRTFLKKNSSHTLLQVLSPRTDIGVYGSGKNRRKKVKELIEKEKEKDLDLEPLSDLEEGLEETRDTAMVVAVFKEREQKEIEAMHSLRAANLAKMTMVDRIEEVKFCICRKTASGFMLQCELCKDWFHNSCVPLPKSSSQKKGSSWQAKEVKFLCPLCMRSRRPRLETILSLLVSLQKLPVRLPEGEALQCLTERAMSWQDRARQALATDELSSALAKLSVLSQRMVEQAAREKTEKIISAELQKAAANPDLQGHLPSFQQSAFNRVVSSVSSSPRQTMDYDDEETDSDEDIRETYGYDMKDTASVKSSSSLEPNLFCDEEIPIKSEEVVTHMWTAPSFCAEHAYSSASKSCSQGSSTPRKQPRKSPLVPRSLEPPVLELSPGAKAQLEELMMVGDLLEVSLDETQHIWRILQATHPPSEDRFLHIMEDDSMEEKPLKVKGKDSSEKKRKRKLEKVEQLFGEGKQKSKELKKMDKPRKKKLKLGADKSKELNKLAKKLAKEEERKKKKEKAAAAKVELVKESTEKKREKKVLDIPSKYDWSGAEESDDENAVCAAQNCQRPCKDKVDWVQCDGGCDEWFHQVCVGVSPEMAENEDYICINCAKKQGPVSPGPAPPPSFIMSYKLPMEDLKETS

[4] = molecular target: T2, JMJD1A (h) (Homo sapiens, UniProt Q9Y4C1); assay: Epigenetic enzyme assay, Demethylases (KDMs); format: biochemical; conditions: for inhibition at 10 µM: read-out: % Inhibition of Control Values
T2 sequence (Q9Y4C1 1-1321): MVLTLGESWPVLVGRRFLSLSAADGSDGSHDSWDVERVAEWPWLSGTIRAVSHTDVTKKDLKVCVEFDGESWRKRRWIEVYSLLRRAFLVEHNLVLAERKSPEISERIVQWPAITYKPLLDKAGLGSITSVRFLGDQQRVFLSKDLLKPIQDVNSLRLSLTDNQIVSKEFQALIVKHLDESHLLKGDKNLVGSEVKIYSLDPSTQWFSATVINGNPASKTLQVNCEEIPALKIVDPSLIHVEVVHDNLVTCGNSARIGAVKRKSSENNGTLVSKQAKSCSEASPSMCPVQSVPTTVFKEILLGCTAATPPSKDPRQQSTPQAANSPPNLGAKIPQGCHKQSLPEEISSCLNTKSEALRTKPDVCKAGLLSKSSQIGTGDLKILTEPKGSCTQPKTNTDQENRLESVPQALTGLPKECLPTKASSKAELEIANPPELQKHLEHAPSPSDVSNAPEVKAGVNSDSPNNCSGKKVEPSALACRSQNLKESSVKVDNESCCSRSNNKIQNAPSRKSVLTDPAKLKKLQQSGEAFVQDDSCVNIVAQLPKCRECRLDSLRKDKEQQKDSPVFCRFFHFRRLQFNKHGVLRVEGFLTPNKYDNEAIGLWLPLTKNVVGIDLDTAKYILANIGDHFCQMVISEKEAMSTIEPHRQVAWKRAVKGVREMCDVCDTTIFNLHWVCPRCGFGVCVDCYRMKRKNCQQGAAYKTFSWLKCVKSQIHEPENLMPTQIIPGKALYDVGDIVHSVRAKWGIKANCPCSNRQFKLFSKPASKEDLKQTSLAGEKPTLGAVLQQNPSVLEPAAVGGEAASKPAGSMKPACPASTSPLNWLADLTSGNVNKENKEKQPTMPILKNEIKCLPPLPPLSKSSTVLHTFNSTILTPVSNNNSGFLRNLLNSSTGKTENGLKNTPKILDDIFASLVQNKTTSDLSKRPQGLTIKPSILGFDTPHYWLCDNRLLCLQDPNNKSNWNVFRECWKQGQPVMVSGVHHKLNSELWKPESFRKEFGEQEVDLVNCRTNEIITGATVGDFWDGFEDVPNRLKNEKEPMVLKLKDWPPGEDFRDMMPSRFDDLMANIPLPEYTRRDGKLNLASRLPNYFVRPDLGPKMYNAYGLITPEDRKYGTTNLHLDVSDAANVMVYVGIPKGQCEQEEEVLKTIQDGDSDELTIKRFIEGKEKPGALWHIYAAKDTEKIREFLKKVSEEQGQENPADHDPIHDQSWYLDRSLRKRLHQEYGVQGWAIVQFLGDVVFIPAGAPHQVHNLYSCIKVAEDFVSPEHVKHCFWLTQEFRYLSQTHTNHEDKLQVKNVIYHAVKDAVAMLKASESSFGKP

[5] = molecular target: UTX (h) (Homo sapiens, UniProt O15550); assay: Epigenetic enzyme assay, Demethylases (KDMs); format: biochemical; conditions: for inhibition at 10 µM: read-out: % Inhibition of Control Values
UTX (h), sequence (O15550 whole entry): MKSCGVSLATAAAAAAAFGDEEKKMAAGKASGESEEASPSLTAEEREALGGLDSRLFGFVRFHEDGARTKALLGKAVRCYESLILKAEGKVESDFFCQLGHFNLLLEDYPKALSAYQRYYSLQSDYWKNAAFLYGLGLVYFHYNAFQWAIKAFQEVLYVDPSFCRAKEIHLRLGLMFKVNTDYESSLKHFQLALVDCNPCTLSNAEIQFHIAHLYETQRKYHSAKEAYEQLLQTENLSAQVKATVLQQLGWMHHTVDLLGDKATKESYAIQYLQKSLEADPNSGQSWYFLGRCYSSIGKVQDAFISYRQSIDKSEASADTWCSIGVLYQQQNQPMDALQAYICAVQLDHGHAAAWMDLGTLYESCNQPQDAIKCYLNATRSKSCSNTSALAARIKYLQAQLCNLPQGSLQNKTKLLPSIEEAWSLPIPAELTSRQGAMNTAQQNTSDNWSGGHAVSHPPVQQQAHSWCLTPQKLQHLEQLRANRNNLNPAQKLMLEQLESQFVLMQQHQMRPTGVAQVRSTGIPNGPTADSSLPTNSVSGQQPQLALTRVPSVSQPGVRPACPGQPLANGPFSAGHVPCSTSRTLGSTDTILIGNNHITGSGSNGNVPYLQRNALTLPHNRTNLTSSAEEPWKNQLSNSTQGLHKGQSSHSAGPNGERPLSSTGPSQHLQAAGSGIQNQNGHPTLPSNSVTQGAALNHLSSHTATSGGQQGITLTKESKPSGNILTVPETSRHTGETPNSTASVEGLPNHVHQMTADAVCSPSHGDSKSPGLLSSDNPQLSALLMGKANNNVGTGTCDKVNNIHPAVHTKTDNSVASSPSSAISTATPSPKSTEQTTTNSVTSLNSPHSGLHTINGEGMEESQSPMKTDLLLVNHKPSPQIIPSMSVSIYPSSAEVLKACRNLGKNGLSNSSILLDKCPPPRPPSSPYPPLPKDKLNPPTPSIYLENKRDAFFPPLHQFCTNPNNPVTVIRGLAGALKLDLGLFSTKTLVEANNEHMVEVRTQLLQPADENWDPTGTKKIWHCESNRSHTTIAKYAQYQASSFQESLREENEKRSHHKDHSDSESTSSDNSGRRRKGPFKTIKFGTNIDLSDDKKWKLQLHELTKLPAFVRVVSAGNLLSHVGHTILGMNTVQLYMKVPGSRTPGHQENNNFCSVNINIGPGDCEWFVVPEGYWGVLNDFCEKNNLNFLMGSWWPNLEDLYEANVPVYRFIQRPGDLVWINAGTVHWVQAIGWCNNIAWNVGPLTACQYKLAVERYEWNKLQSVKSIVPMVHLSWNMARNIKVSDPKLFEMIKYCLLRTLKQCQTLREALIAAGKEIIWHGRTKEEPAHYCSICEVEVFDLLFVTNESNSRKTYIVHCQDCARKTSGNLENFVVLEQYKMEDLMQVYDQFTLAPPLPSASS

[6] = molecular target: MYST4(h) (Homo sapiens, UniProt Q8WYB5); assay: Epigenetic enzyme assay, Histone acetyltransferases (HATs); format: biochemical; conditions: for inhibition at 10 µM: read-out: % Inhibition of Control Values
[7] = molecular target: TIP60(h) (Homo sapiens, UniProt Q92993); assay: as above; format: biochemical; conditions: read-out: % Inhibition of Control Values
TIP60(h), sequence (Q92993 whole entry): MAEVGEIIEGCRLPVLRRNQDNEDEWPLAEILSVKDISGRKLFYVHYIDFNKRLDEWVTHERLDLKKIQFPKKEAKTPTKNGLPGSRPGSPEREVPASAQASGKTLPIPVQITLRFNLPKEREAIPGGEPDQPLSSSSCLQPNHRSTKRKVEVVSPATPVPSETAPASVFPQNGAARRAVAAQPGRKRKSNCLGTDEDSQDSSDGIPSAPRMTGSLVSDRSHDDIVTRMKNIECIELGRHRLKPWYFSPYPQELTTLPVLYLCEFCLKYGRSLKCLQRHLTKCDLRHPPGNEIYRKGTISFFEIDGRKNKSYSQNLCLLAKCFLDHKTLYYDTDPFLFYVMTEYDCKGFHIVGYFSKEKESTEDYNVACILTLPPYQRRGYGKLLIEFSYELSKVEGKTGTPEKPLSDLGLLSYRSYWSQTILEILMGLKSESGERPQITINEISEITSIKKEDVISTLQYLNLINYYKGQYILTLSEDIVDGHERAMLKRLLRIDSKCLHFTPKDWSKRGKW

[8] = molecular target: HDAC1 (h) (Homo sapiens, UniProt Q13547); assay: Epigenetic enzyme assay, Histone deacetylase (HDACs); format: biochemical; conditions: read-out: % Inhibition of Control Values
HDAC1 (h), sequence (Q13547 whole entry): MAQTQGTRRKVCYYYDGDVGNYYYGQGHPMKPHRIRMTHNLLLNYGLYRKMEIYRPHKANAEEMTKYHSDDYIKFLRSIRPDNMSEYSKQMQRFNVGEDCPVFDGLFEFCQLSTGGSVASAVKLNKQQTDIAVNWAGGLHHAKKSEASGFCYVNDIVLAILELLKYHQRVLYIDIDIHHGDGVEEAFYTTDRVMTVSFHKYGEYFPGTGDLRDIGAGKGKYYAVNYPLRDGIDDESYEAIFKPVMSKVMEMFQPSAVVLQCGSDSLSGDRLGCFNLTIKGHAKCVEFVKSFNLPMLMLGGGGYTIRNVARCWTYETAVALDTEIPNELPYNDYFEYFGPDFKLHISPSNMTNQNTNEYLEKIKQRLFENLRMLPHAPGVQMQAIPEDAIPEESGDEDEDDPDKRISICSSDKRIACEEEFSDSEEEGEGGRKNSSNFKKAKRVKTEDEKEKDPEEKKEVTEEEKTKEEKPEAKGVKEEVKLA

[9] = molecular target: EZH2/EED/SUZ12 (h) (PRC2 complex) (Homo sapiens, UniProt Q15910); assay: Epigenetic enzyme assay, Methyltransferases (MTs); format: biochemical; conditions: read-out: % Inhibition of Control Values
[10] = molecular target: PRMT6 (h) (Homo sapiens, UniProt Q96LA8); assay: Epigenetic enzyme assay, Methyltransferases (MTs); format: biochemical; conditions: read-out: % Inhibition of Control Values
PRMT6 (h), sequence (Q96LA8 whole entry): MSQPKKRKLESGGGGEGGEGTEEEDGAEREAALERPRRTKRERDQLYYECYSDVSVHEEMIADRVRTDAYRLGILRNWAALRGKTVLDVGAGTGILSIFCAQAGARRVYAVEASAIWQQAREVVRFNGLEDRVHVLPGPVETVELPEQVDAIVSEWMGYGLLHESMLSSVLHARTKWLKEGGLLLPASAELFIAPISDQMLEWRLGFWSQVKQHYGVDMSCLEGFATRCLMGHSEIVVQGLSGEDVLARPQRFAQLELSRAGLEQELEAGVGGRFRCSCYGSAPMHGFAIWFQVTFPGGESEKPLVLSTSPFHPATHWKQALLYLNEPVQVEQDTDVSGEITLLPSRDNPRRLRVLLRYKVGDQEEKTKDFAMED

[11] = molecular target: T3, Phenylethanolamine N-methyltransferase (h) (Homo sapiens, UniProt P11086); assay: Epigenetic enzyme assay, Small molecule methyltransferases; format: biochemical; conditions: read-out: % Inhibition of Control Values
T3 sequence (P11086 1-282): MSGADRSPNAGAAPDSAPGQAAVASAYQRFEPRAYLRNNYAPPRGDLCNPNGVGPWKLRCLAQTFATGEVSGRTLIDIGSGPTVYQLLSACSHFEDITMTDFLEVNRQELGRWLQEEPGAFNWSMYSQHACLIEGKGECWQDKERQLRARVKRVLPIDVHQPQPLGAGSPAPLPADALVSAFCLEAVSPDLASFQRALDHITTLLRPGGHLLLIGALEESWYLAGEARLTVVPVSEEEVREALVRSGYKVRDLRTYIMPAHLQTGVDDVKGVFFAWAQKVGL

[12] = tested on: Angiotensin, AT1/ACE; assay: Angiotensin, AT1/ACE, guinea pig ileum (isotonic); design: species or system Dunkin Hartley Guinea pig; conditions: 10 μM; assay year 2015
Experimental: The in vitro pharmacological studies were conducted by Eurofins PanLab (Taiwan) using the parameters shown in Table 13 with respect to appropriate literature references.

[13] = tested on: IM-9; assay: OncoPanel cell proliferation assay (10-day); format: cell-based, human; conditions: for EC50 / GI50 / IC50: Homo sapiens, IM-9, Myeloma; for EC50: read-out: Cell Count EC50; for GI50: read-out: Cell Count GI50; for IC50: read-out: Cell Count IC50
[14] = tested on: SK-NEP-1 kidney; assay: OncoPanel cell proliferation assay (10-day); format: cell-based; conditions: Homo sapiens; for EC50: read-out: Cell Count EC50; for IC50: read-out: Cell Count IC50
[15] = Table 11, inhibition/concentration-response curve
[16] = SK-NEP-1, Kidney, read-out: Cell Count GI50

T1 sequence (Q15059 34-140 limits assumed): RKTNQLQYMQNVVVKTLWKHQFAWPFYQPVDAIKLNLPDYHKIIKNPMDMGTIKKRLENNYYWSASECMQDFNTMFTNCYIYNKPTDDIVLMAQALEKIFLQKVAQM

Row | SMILES | inhibition at 10 µM [1] [%] | inhibition at 10 µM [2] [%] | inhibition at 10 µM ([3]; 10 μM) [%] | inhibition at 10 µM ([4]; 10 μM) [%] | inhibition at 10 µM ([5]; 10 μM) [%] | inhibition at 10 µM [6] [%] | inhibition at 10 µM [7] [%] | inhibition at 10 µM [8] [%] | inhibition at 10 µM [9] [%] | inhibition at 10 µM [10] [%] | inhibition at 10 µM [11] [%] | % Control Response, Agonist [12] [%] | % Control Response, Antagonist [12] [%] | EC50 [13] [µM] | GI50 [13] [µM] | IC50 [13] [µM] | GI50 ([14]; SK-NEP-1, read-out: GI50) [µM] | EC50 ([14]; SK-NEP-1, Kidney) [µM] | GI50 [14, 16] [µM] | IC50 ([14]; SK-NEP-1, Kidney) [µM] | other results
1 | CC(C)=CCC[C@H](CO)[C@@H]1CC[C@@H](C)c2c1cc(C)c(O)c2O [Compound 1, 7,8,18-trihydroxyserrulat-14-ene] | 47 | -2 | 64 | 80 | 68 | 25 | 20 | -2 | 19 | 49 | 23 | 0 | 34 | 0.42 | 0.42 | 0.42 | 0.00618 | 0.01 | 0.006 | 0.01 | % Inhibition of Control Values ([3]; 10 μM): significant inhibitory activity; IC50 ([3]; Table 11, inhibition/concentration-response curve, read-out: IC50): 9.6 µM; % Inhibition of Control Values ([4]; 10 μM): significant inhibitory activity; IC50 [4, 15]: 4.5 µM; % Inhibition of Control Values ([5]; 10 μM): significant inhibitory activity; IC50 [5, 15]: 6.7 µM; Relative cell count (%) Mean ([13]; IM-9, 3.00E+00 microM): 0.1%; Relative cell count (%) Mean ([13]; IM-9, 3.00E+01 microM): 0.0%; Relative cell count (%) Mean ([13]; IM-9, 3.01E−01 microM): 97.5%; Relative cell count (%) Mean ([13]; IM-9, 3.01E−02 microM): 107.3%; Relative cell count (%) Mean ([13]; IM-9, 3.02E−03 microM): 102.8%; Relative cell count (%) Mean ([13]; IM-9, 9.49E+00 microM): 0.1%; Relative cell count (%) Mean ([13]; IM-9, 9.51E−01 microM): 0.0%; Relative cell count (%) Mean ([13]; IM-9, 9.52E−02 microM): 97.7%; Relative cell count (%) Mean ([13]; IM-9, 9.53E−03 microM): 103.1%; Relative cell count (%) Mean ([13]; IM-9, 9.55E−04 microM): 94.9%
2 | CC(C)=CCC[C@@H]1C(O)Oc2c(C)cc(O)c3c2[C@H]1CC[C@H]3C (stereo partly shown) [Compound 2, 5,18-epoxyserrulat-14-en-8,18-diol] | 17 | -16 | -9 | 37 | 5 | 39 | 10 | -1 | 26 | 57 | 9 | 0 | 10 | 3.92 | 3.92 | 3.92 | 0.0606 | 0.06 | 0.06 | 0.06 | 
3 | CC(C)=CCC[C@@H]1COc2c(C)cc(O)c3c2[C@H]1CC[C@H]3C [Compound 3, 5,18-epoxy-8-hydroxyserrulat-14-ene] | 13 | -5 | 3 | -1 | 27 | 71 | -3 | -1 | 4 | 34 | 5 | 0 | 17 |  |  |  |  |  |  |  | 
4 | CC(C)=CCC[C@H](C)[C@@H]1CC[C@@H](C)c2c1cc(C)c(O)c2O [Compound 4, 7,8-dihydroxyserrulat-14-ene] |  |  |  |  |  |  |  |  |  |  |  |  |  | 6.71 | 6.71 | 6.71 |  | 9.62 | 9.62 | 9.63 | IC50 [6, 15]: 4.2 µM

Reference: patent publication US11331299B2, “Medicinal use of serrulatane diterpenes” (The University of Sydney, priority 2016, dated 2022)
